We go through 25 substances from doi:10.1101/2022.12.01.518643 (bioRxiv, 2022).

In test [1] the target is DP4 (HLA-DPA1*01:03/DPB1*04:01), DP4.1 (Homo sapiens, UniProt P04440+P20036). Kind of test: Fluorescence polarization competition binding assay, DP4.1. Particulars: FP competition; Alexa488 oxytocinase probe 25 nM; DP4.1-Clip 250 nM; HLA-DM 500 nM; 37 °C, 24 h. A general note: In fluorescence polarisation assays a small probe gives low polarisation when free and higher when bound to something large.

Another test deals with DRB1*15:01 (DR2b) (Homo sapiens, UniProt P01903+P01911). The test is described as follows: Fluorescence polarization competition binding assay, DR2b. Particulars: FP competition; Alexa488 MBP probe 25 nM; DR2b-CLIP 500 nM; HLA-DM 500 nM; 37 °C, 24 h.
A further test deals with DRB5*01:01 (DR2a) (Homo sapiens, UniProt P01903+Q30154). The test is described as follows: Fluorescence polarization competition binding assay, DR2a. Particulars: FP competition; Alexa488 influenza hemagglutinin probe 25 nM; DR2a-CLIP 250 nM; HLA-DM 500 nM; 37 °C, 24 h.
Test [2] concerns relevant alleles (DP4.1, DR2b, DR2a). The test is described as follows: Fluorescence polarization competition binding assay, relevant alleles. Also on record: species or system human. Particulars: six representative HLA-DR peptides.
In test [3] the test system is peptide-expanded T cells from partially HLA-matched donors. Kind of test: IFN-γ ELISpot, single-peptide in vitro expanded T cells with single allele APC. In kind it is cell-based, human. To be noted: for T cell recognition, IFN-γ ELISpot: expanded T cells from HLA-matched donors; for minimal activating peptide concentration: dose range 10 – 10^−7 μg/mL.
In test [4] the test system is single-peptide-expanded T cell lines. The test is described as follows: Intracellular cytokine staining (ICS) of single-peptide-expanded T cell lines. The class given is cell-based, human. Particulars: single allele APC, 1 μg/mL.
Test [5] deals with T cell lines expanded in vitro with OC43 or SARS-CoV-2 peptides. The test is described as follows: IFN-γ ELISpot cross-reactivity between OC43 peptides and homologs of other coronaviruses. To be noted: Table 1.
Test [6] deals with soluble DP4 (HLA-DPA1*01:03/DPB1*04:01) (human).
Test [7] has as its target soluble recombinant HLA-DR DRB1*15:01 (DR2b) (human). Kind of test: fluorescence polarisation.
In test [8] the target is soluble recombinant HLA-DR DRB5*01:01 (DR2a) (human). The test is described as follows: fluorescence polarisation.
Test [9] has as its target soluble recombinant HLA-DR DRB1*15:01 (DR2b) (human).
Test [10] addresses soluble recombinant HLA-DR DRB5*01:01 (DR2a) (human).

Like-named read-outs stand apart in the source and are kept apart here.

In test [1], “APYGLYFIHFSYVPTK [Peptide P6, OC43 spike 1140–1155, naturally processed peptide eluted from HLA-DP]” yielded an IC50 of at least 10000 nM.
“DFINGIFAKVKNTKVIK [Peptide P12, OC43 spike 98–114, naturally processed peptide eluted from HLA-DR]”: the half-maximal inhibitory concentration (IC50) on DRB1*15:01 (DR2b) was at least 1000 nM; on DRB5*01:01 (DR2a) it was under 1000 nM. Also, the “binding to DR2a / DR2b allotypes” value in test [2] is on record as “bound exclusively to DR2a”.
Consider “EGQQIIFYEGVNFTP [Peptide P8, OC43 hemagglutinin esterase 93–107, naturally processed peptide eluted from HLA-DR]”, for which the “T cell recognition, IFN-γ ELISpot” value in test [3] is given as “not recognized”. In test [4], the “IFN-γ response in ICS” value is listed as “did not produce a response”.
For “GAFFFGSRLELAKVQN [Peptide P2, OC43 nucleoprotein 321–336, naturally processed peptide eluted from HLA-DP]”, the IC50 in [1] is at least 10000 nM. For the same substance, the “minimal activating peptide concentration” value in [3] (expanded cells from donor 61) is 10^−6 μg/mL.
As to “ITTGYRFTNFEPFT [Peptide P5, OC43 spike 760–773, naturally processed peptide eluted from HLA-DP]”, the IC50 in test [1] is under 1000 nM.
At DRB5*01:01 (DR2a), “LFYTQVYKNMAVYRS [Peptide P9, OC43 hemagglutinin esterase 128–142, naturally processed peptide eluted from HLA-DR]” yielded a half-maximal inhibitory concentration (IC50) of under 1000 nM. In [3] (donor 40), the “minimal activating peptide concentration” value is 1 µg/mL. Moreover, the “binding to DR2a / DR2b allotypes” value in test [2] is listed as “both allotypes”.
Consider “LSDFINGIFAKVKNTK [Peptide P3, OC43 spike 97–111, naturally processed peptide eluted from HLA-DP]”, for which the “minimal activating peptide concentration” value in test [3] (expanded cells from donor 61) is listed as 10^−7 μg/mL.
On to LTALNAYVSQQLSDS [Peptide P11], for which, in test [3] (donor 07), the “minimal activating peptide concentration” value came to 1 µg/mL. Also, the SARS-CoV-2 cross-reactivity result in test [5] is “yes”.
On to “NRGRQFYEFYNDVKPP [Peptide P14, OC43 envelope 62–78, naturally processed peptide eluted from HLA-DP]”, for which the “T cell recognition, IFN-γ ELISpot” value in test [3] is “not recognized”. For the same substance, the “IFN-γ response in ICS” value in test [4] was “did not produce a response”.
In the case of “OC43 envelope protein peptide 62–78 (P14)”, the IC50 in test [6] was under 10000 nM.
Regarding “OC43 hemagglutinin esterase peptide 93–107 (P8)”, the IC50 in test [7] is under 1000 nM.
With “OC43 hemagglutinin esterase peptide 128–142 (P9)”, the IC50 in test [7] and in [8] was under 1000 nM each time.
With OC43 nucleoprotein peptide 54–68 (P10), in [9], the IC50 was under 1000 nM.
OC43 nucleoprotein peptide 321–336 (P2): the IC50 in test [6] is over 10000 nM.
Same read-out and setting: with OC43 spike peptide 97–111 (P3) the figure was under 10000 nM.
As to OC43 spike peptide 98–114 (P12), the IC50 in test [9] was over 1000 nM; in test [10], under 1000 nM.
As to OC43 spike peptide 271–286 (P13), the IC50 in [9] was under 1000 nM.
The substance OC43 spike peptide 760–773 (P5) returned an IC50 in test [6] of under 1000 nM.
OC43 spike peptide 903–917 (P4) gave a 50% inhibitory concentration (IC50) in test [6] of under 10000 nM.
For the substance OC43 spike peptide 1085–1099 (P11), the IC50 in test [9] is under 1000 nM.
In [6], OC43 spike peptide 1140–1155 (P6) returned an IC50 of over 10000 nM.
Take OC43 spike peptide 1147–1164 (P7): the IC50 in test [6] is under 10000 nM.
Take “PSGGNVVPYYSWFSG [Peptide P10, OC43 nucleoprotein 54–68, naturally processed peptide eluted from HLA-DR]”: in test [3] (donors 18, 22, and 40), the “minimal activating peptide concentration” value was 10^−5 μg/mL. The minimal peptide concentrations entry in test [3] (responding CD4 T cells, discussion) was “about 10 pg/mL”.
In the case of “SRQYLLAFNQDGIIFN [Peptide P13, OC43 spike 271–286, naturally processed peptide eluted from HLA-DR]”, on DRB1*15:01 (DR2b), the concentration for half-maximal inhibition (IC50) is under 1000 nM. The “T cell recognition, IFN-γ ELISpot” value in test [3] was “not recognized”. Further, the “IFN-γ response in ICS” value in test [4] is given as “did not produce a response”.
For “YLAISNELLLTVPTK [Peptide P1, OC43 hemagglutinin esterase 259–273, naturally processed peptide eluted from HLA-DP]”, the IC50 in [1] is under 1000 nM.

Broadly, the IC50 is the concentration that gives 50% inhibition.
